Assay results from ChEMBL document CHEMBL3425434 (J Med Chem, 2015).
Activity calls are given as the source filed them. No cut-off for these calls is given here.

Tests used:
[1] = biological target: T1, Rho-associated protein kinase 2 (Homo sapiens, UniProt O75116); assay: Inhibition of human N-terminal GST-tagged ROCK2 expressed in baculovirus-infected insect cells using long S6 kinase peptide as substrate by radiometric assay in presence of [32P]ATP
[2] = biological target: T1, Rho-associated protein kinase 2; assay: Inhibition of human N-terminal GST-tagged ROCK2 expressed in baculovirus-infected insect cells using long S6 kinase peptide as substrate by radiometric assay in presence of [32P]ATP and 200 uM ATP
[3] = Inhibition of ROCK-catalysed MLC Thr18/Ser19 phosphorylation in rat A7r5 cells after 90 mins by ELISA; assay type: cell-based; settings: A7R5, 1.5 h
[4] = Half life in human plasma by LC-MS/MS analysis; assay type: ADME, cell-free
[5] = Stability in human plasma assessed as compound remaining after 60 mins by LC-MS/MS analysis; assay type: ADME, cell-free; settings: read-out: Stability
[6] = Stability in human plasma assessed as compound remaining after 60 mins by LC-MS/MS analysis in presence of 5 uM cholinesterase inhibitor tacrine; assay type: ADME, cell-free; settings: with tacrine (cholinesterase inhibitor), read-out: Stability
[7] = biological target: Rho-associated protein kinase 1 (Homo sapiens, UniProt Q13464); assay: Inhibition of human N-terminal GST-tagged ROCK1 expressed in insect cells using long S6 kinase peptide as substrate by radiometric assay in presence of [32P]ATP
Sequence of Rho-associated protein kinase 1 (Q13464 whole entry): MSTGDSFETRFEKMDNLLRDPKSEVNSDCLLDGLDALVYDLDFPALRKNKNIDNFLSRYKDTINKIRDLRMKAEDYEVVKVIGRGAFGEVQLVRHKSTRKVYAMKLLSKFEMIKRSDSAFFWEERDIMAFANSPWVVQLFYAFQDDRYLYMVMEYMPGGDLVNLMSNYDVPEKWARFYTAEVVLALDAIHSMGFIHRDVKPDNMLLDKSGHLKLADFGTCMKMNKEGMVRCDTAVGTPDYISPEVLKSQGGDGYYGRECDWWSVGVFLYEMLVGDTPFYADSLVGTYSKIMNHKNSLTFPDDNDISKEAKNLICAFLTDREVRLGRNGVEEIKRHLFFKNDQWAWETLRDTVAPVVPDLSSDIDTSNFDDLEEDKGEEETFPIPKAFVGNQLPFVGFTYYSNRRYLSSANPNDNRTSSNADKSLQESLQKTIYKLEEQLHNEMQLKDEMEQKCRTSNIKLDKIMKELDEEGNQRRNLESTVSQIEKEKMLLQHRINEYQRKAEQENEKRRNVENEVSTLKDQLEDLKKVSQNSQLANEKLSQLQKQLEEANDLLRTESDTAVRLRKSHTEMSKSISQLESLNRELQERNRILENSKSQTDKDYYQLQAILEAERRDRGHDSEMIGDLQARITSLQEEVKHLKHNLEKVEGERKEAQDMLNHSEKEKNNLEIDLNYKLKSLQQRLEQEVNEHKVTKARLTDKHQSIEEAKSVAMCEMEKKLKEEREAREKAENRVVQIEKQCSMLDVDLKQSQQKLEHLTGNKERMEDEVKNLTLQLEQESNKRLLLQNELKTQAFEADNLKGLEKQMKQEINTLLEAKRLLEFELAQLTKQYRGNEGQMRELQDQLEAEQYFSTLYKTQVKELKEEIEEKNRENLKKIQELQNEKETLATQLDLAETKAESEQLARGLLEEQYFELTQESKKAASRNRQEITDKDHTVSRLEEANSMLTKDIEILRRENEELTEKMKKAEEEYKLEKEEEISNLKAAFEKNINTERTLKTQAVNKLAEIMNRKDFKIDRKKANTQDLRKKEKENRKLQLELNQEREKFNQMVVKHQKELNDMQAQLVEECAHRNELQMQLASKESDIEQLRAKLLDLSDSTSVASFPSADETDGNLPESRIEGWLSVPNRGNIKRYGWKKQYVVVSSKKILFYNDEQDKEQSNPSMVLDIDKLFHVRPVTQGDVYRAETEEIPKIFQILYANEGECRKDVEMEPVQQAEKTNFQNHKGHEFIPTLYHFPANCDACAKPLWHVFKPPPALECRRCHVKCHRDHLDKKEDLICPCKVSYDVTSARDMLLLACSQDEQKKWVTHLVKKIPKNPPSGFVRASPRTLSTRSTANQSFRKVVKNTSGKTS

[8] = Cytotoxicity against human HDF-1 cells assessed as decrease in cell viability after 2 hrs by WST-1 assay; assay type: cell-based
[9] = Induction of apoptosis in human HDF-1 cells assessed as increase in caspase3/7 activity at 60 uM after 24 hrs by caspase Glo-3/7 assay; assay type: cell-based; settings: hdf-1, 24 h
HDF-1 [10] = assay: Induction of cell migration in human HDF-1 cells after 8 hrs by wound healing assay; assay type: functional, cell-based
Plasma [11] = assay: Stability in human plasma by LC-MS/MS analysis in presence of carboxylesterase inhibitor BNPP; assay type: ADME, cell-free
Plasma [12] = assay: Stability in human plasma by LC-MS/MS analysis in presence of arylesterase inhibitor DTNB; assay type: ADME, cell-free
Plasma [13] = assay: Stability in human plasma by LC-MS/MS analysis in presence of 5 mM PON1 inhibitor, disodium EDTA; assay type: ADME, cell-free
Plasma [14] = assay: Stability in human plasma after 120 mins by LC-MS/MS analysis in presence of generic serine protease/serine esterase inhibitor, PMSF; assay type: ADME, cell-free; settings: 2 h
[15] = Half life in human plasma by LC-MS/MS analysis in presence of 5 uM cholinesterase inhibitor tacrine; assay type: ADME, cell-free; settings: with tacrine (cholinesterase inhibitor)
[16] = Induction of apoptosis in human HDF-1 cells assessed as increase in caspase3/7 activity at 40-100 uM after 24 hrs by caspase Glo-3/7 assay; assay type: cell-based; settings: hdf-1, 24 h
HDF-1 [17] = assay: Induction of cell migration in human HDF-1 cells at 1 uM after 8 hrs by wound healing assay; assay type: functional, cell-based
[18] = Apparent permeability across human Caco2 cells; assay type: ADME, cell-based; settings: Caco-2
[19] = Lipophilicity, log D of the compound at pH 7.4; assay type: physicochemical; settings: buffer
[20] = Stability in human plasma assessed as compound remaining after 2 hrs by LC-MS/MS analysis; assay type: ADME, cell-free; settings: read-out: Stability

T1 sequence (O75116 whole entry): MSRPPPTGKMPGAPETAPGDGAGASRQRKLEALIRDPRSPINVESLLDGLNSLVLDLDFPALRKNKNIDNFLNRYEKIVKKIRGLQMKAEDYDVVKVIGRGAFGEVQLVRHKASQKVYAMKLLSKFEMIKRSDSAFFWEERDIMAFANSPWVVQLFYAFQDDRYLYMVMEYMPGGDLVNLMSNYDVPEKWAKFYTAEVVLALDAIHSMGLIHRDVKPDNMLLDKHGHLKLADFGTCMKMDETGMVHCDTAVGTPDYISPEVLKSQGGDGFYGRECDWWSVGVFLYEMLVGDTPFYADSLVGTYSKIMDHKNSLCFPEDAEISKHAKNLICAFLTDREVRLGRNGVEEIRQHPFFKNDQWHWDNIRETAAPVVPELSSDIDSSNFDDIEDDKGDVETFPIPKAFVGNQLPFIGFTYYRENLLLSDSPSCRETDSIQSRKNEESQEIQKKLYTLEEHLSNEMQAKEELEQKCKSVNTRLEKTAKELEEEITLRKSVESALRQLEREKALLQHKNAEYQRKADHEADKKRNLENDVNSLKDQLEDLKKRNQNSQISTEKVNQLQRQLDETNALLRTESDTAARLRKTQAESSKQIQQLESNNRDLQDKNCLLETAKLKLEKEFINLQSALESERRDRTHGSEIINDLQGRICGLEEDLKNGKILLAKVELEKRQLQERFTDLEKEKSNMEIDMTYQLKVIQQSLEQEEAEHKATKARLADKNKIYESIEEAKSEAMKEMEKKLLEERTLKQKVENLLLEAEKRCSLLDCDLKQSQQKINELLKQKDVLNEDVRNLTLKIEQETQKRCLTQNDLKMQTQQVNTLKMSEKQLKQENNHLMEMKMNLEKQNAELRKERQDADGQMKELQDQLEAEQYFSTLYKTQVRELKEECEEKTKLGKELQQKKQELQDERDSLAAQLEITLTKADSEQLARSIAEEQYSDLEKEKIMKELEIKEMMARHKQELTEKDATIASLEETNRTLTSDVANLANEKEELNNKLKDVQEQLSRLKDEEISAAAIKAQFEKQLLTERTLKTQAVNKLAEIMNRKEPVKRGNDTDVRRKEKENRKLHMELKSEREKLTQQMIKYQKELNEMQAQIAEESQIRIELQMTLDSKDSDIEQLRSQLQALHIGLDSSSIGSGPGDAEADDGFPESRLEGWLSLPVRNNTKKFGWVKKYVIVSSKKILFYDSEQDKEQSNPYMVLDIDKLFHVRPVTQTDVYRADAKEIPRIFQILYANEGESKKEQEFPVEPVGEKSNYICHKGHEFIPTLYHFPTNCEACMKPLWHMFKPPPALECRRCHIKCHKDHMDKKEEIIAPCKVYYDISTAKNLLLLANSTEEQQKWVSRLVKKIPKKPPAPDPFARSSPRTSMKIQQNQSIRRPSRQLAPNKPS

NCc1ccc(C(=O)Nc2ccncc2F)cc1-c1cccc(C(=O)Nc2ccc(CC(=O)OC3CCOCC3)cc2)c1
IC50 [1]: < 1 nM
IC50 [2]: < 1 nM
EC50 [3]: 79 nM
half-life [4]: 7 min
remaining at 1 h [5]: 0%
remaining at 1 h [6]: 82%

CC[C@@H](C)OC(=O)Cc1ccc(NC(=O)c2cccc(-c3cc(C(=O)Nc4ccncc4F)ccc3CN)c2)cc1
IC50 [1]: < 1 nM
IC50 [2]: < 1 nM
EC50 [3]: 31 nM
half-life [4]: > 120 min

NCc1ccc(C(=O)Nc2ccncc2F)cc1-c1cccc(C(=O)Nc2cccc(C(=O)OC3CCCC3)c2F)c1
IC50 [1]: 1.4 nM
IC50 [2]: 41 nM
EC50 [3]: 43 nM
half-life [4]: 9 min

C[C@H]1CNCCCN1S(=O)(=O)c1cccc2cncc(F)c12
IC50 [1]: 3.8 nM
IC50 [2]: 197 nM
EC50 [3]: 210 nM

CN1CCC(OC(=O)Cc2ccc(NC(=O)c3cccc(-c4cc(C(=O)Nc5ccncc5F)ccc4CN)c3)cc2)CC1
IC50 [1]: < 1 nM
IC50 [2]: 4.6 nM
EC50 [3]: 330 nM
half-life [4]: < 5 min

NCc1ccc(C(=O)Nc2ccncc2F)cc1-c1cccc(C(=O)Nc2cccc(C(=O)O)c2)c1
IC50 [1]: 6.6 nM
EC50 [3]: 5900 nM
half-life [4]: > 120 min

C[C@@H](N)[C@H]1CC[C@H](C(=O)Nc2ccncc2)CC1 [Y-27632]
EC50 [3]: 630 nM
half-life [4]: > 120 min

NCc1ccc(C(=O)Nc2ccncc2F)cc1-c1cccc(C(=O)OCC2CCCO2)c1 (configuration not stated)
IC50 [2]: 49 nM
EC50 [3]: 94 nM
half-life [4]: < 5 min

COC(=O)Cc1cccc(NC(=O)c2cccc(-c3cc(C(=O)Nc4ccncc4F)ccc3CN)c2)c1
IC50 [7]: < 1 nM
IC50 [1]: 1.1 nM
IC50 [2]: 144 nM
EC50 [3]: 220 nM
half-life [4]: < 5 min

NCc1ccc(C(=O)Nc2ccncc2F)cc1-c1cccc(C(=O)Nc2cccc(C(=O)O)c2F)c1
IC50 [1]: 3.5 nM
EC50 [3]: > 10000 nM
half-life [4]: > 120 min

CC[C@H](C)OC(=O)Cc1ccc(NC(=O)c2cccc(-c3cc(C(=O)Nc4ccncc4F)ccc3CN)c2)cc1
IC50 [1]: < 1 nM
IC50 [2]: < 1 nM
EC50 [3]: 23 nM
half-life [4]: 17 min
remaining at 1 h [5]: 42%
remaining at 1 h [6]: 101%

NCc1ccc(C(=O)Nc2ccncc2F)cc1-c1cccc(C(=O)Nc2ccc(CC(=O)OC3CCC3)cc2)c1
IC50 [1]: 1.3 nM
IC50 [2]: 1.4 nM
EC50 [3]: 24 nM
half-life [4]: 6 min

CCCOC(=O)c1ccc(NC(=O)c2cccc(-c3cc(C(=O)Nc4ccncc4F)ccc3CN)c2)cc1
IC50 [1]: < 1 nM
EC50 [3]: 8.3 nM
half-life [4]: > 120 min

CCCOC(=O)c1ccc(F)c(NC(=O)c2cccc(-c3cc(C(=O)Nc4ccncc4F)ccc3CN)c2)c1
IC50 [1]: 2.1 nM
EC50 [3]: 75 nM
half-life [4]: < 5 min

CC(C)OC(=O)Cc1ccc(NC(=O)c2cccc(-c3cc(C(=O)Nc4ccncc4F)ccc3CN)c2)cc1
IC50 [1]: < 1 nM
IC50 [2]: < 1 nM
EC50 [3]: 37 nM
half-life [4]: 94 min

COC(=O)c1ccc(F)c(NC(=O)c2cccc(-c3cc(C(=O)Nc4ccncc4F)ccc3CN)c2)c1
CC50 at 2 h [8]: 45000 nM
Activity [9]: Toxic
Activity (HDF-1 [10]): Dose-dependent effect
IC50 [1]: 1.6 nM
IC50 [2]: 46 nM
EC50 [3]: 26 nM
half-life [4]: 18 min
Stability (Plasma [11]): Unstable
Stability (Plasma [12]): Unstable
Stability (Plasma [13]): Unstable
Stability (Plasma [14]): Stable
remaining at 1 h [5]: 13%
remaining at 1 h [6]: 98%

NCc1ccc(C(=O)Nc2ccncc2F)cc1-c1cccc(NC(=O)c2ccc(C(=O)O)cc2)c1
IC50 [1]: 1 nM
EC50 [3]: 3600 nM

NCc1ccc(C(=O)Nc2ccncc2F)cc1-c1cccc(C(=O)Nc2cccc(CC(=O)O)c2)c1
IC50 [1]: 1.5 nM
EC50 [3]: 1300 nM
half-life [4]: > 120 min

COC(=O)Cc1ccc(NC(=O)c2cccc(-c3cc(C(=O)Nc4ccncc4F)ccc3CN)c2)cc1
IC50 [7]: < 1 nM
IC50 [1]: < 1 nM
IC50 [2]: 11 nM
EC50 [3]: 31 nM
half-life [4]: < 5 min
half-life [15]: 53 min

NCc1ccc(C(=O)Nc2ccncc2F)cc1-c1cccc(C(=O)Nc2ccc(CC(=O)OC3CCCC3)cc2)c1
CC50 at 2 h [8]: 29000 nM
Activity [16]: Toxic
Activity (HDF-1 [10]): Dose-dependent effect
IC50 [1]: < 1 nM
IC50 [2]: 1.3 nM
EC50 [3]: 26 nM
half-life [4]: 7 min
remaining at 1 h [5]: 2%
remaining at 1 h [6]: 100%

COCCOC(=O)c1ccc(F)c(C(=O)Nc2cccc(-c3cc(C(=O)Nc4ccncc4F)ccc3CN)c2)c1
IC50 [1]: < 1 nM
IC50 [2]: 2.2 nM
EC50 [3]: 26 nM
half-life [4]: < 5 min
remaining at 1 h [5]: 0%
remaining at 1 h [6]: 88%

CCC(C)OC(=O)c1cccc(NC(=O)c2cccc(-c3cc(C(=O)Nc4ccncc4F)ccc3CN)c2)c1 (configuration not stated)
IC50 [1]: 2.6 nM
EC50 [3]: 77 nM
half-life [4]: 16 min

NCc1ccc(C(=O)Nc2ccncc2F)cc1-c1cccc(C(=O)Nc2ccc(C(=O)O)cc2)c1
Activity (HDF-1 [17]): inactive
IC50 [1]: 3.3 nM
EC50 [3]: 6600 nM
half-life [4]: > 120 min
Papp [18]: 0.08 ×10⁻⁶ cm/s
logD [19]: 0.56

NCc1ccc(C(=O)Nc2ccncc2F)cc1-c1cccc(C(=O)Nc2ccccc2)c1
IC50 [1]: < 1 nM
IC50 [2]: 31 nM
EC50 [3]: 22 nM
half-life [4]: > 120 min
remaining at 2 h [20]: > 90%
Papp [18]: 2.3 ×10⁻⁶ cm/s

COC(=O)c1ccc(F)c(C(=O)Nc2cccc(-c3cc(C(=O)Nc4ccncc4F)ccc3CN)c2)c1
IC50 [1]: < 1 nM
IC50 [2]: 1.4 nM
EC50 [3]: 6.8 nM
half-life [4]: 53 min
remaining at 1 h [5]: 23%
remaining at 1 h [6]: 103%

CC(C)OC(=O)c1cccc(NC(=O)c2cccc(-c3cc(C(=O)Nc4ccncc4F)ccc3CN)c2)c1
IC50 [1]: 7 nM
EC50 [3]: 150 nM
half-life [4]: 34 min

COC(=O)c1ccc(C(=O)Nc2cccc(-c3cc(C(=O)Nc4ccncc4F)ccc3CN)c2)cc1
IC50 [1]: < 1 nM
IC50 [2]: 3.1 nM
EC50 [3]: 5.2 nM
half-life [4]: > 120 min

CC[C@H](C)OC(=O)c1ccc(F)c(NC(=O)c2cccc(-c3cc(C(=O)Nc4ccncc4F)ccc3CN)c2)c1
IC50 [1]: 5.5 nM
IC50 [2]: 72 nM
EC50 [3]: 50 nM
half-life [4]: 39 min

CCCCOC(=O)c1cccc(NC(=O)c2cccc(-c3cc(C(=O)Nc4ccncc4F)ccc3CN)c2)c1
IC50 [1]: 27 nM
EC50 [3]: 180 nM
half-life [4]: < 5 min

NCc1ccc(C(=O)Nc2ccncc2F)cc1-c1cccc(C(=O)Nc2cc(C(=O)O)ccc2F)c1
IC50 [1]: 2 nM
EC50 [3]: 3900 nM
half-life [4]: > 120 min

CC[C@@H](C)OC(=O)c1ccc(F)c(NC(=O)c2cccc(-c3cc(C(=O)Nc4ccncc4F)ccc3CN)c2)c1
IC50 [1]: 3.3 nM
EC50 [3]: 79 nM
half-life [4]: 46 min

NCc1ccc(C(=O)Nc2ccncc2F)cc1-c1cccc(C(=O)Nc2ccc(CC(=O)OC3CCCOC3)cc2)c1 (configuration not stated)
IC50 [1]: < 1 nM
IC50 [2]: < 1 nM
EC50 [3]: 36 nM
half-life [4]: 6 min

NCc1ccc(C(=O)Nc2ccncc2F)cc1-c1cccc(NC(=O)c2cccc(C(=O)O)c2)c1
IC50 [1]: < 1 nM
EC50 [3]: 2000 nM
half-life [4]: > 120 min

NCc1ccc(C(=O)Nc2ccncc2F)cc1-c1cccc(C(=O)Nc2ccc(CC(=O)O)cc2)c1
IC50 [1]: 1.8 nM
EC50 [3]: 3600 nM
half-life [4]: > 120 min

CCCOC(=O)c1cccc(C(=O)Nc2cccc(-c3cc(C(=O)Nc4ccncc4F)ccc3CN)c2)c1
IC50 [1]: 1.8 nM
EC50 [3]: 15 nM
half-life [4]: < 5 min

COC(=O)c1cccc(NC(=O)c2cccc(-c3cc(C(=O)Nc4ccncc4F)ccc3CN)c2)c1F
IC50 [1]: 1.2 nM
IC50 [2]: 8.8 nM
EC50 [3]: 11 nM
half-life [4]: < 5 min

NCc1ccc(C(=O)Nc2ccncc2F)cc1-c1cccc(NC(=O)c2cc(C(=O)O)ccc2F)c1
IC50 [1]: < 1 nM
EC50 [3]: 8900 nM
half-life [4]: > 120 min

COC(=O)c1cccc(C(=O)Nc2cccc(-c3cc(C(=O)Nc4ccncc4F)ccc3CN)c2)c1
IC50 [1]: < 1 nM
IC50 [2]: 2.1 nM
EC50 [3]: 17 nM
half-life [4]: 64 min

COC(=O)c1cccc(NC(=O)c2cccc(-c3cc(C(=O)Nc4ccncc4F)ccc3CN)c2)c1
IC50 [7]: < 1 nM
IC50 [1]: 1.1 nM
IC50 [2]: 125 nM
EC50 [3]: 79 nM
half-life [4]: < 5 min
half-life [15]: 53 min
